Measurements: patent US12466826B2, “3-benzoyl-1H-pyrrolo[2,3-b]pyridine derivatives as MKK4 inhibitors for treating liver diseases” (HepaRegeniX GmbH, priority 2020, dated 2025)

How the values were obtained:
Assay type in all cases: biochemical
MKK4 = target: T1, MKK4 (Homo sapiens, UniProt P45985); assay: 33PanQinase kinase assay, MKK4 potency; conditions: based on inhibition of enzyme activity at a single concentration or on IC50-values
T1 construct: purchased ProQinase GmbH, Freiburg, Germany (assay service)
T1 sequence (P45985 1-399): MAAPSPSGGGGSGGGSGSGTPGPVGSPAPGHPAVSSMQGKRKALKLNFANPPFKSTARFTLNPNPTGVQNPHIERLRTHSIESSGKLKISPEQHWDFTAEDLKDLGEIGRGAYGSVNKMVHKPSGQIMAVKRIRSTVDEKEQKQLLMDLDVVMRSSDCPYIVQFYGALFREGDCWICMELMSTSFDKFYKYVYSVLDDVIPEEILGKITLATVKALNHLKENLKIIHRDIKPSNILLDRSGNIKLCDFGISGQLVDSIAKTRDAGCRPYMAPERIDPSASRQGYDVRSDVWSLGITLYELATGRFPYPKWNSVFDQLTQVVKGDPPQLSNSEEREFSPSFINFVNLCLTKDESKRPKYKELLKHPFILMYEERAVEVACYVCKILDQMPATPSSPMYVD
Protocol: (§1) The kinase activities of the compounds of the invention were measured using the 33PanQinase® Assay Service provided by ProQinase GmbH, Freiburg, Germany. Details of the assay conditions are disclosed on the website of ProQinase (https://www.proqinase.com/products-services-biochemical-assay-services/kinase-assays).
(§2) In brief, all kinase assays were performed in 96-well FlashPlates™ from PerkinElmer (Boston, MA, USA) in a 50 μl reaction volume. The reaction cocktail was pipetted in four steps in the following order: • 20 μl of assay buffer (standard buffer) • 5 μl of ATP solution (in H2O) • 5 μl of test compound (in 10% DMSO) • 20 μl enzyme/substrate mix
(§3) The assay for all protein kinases contained 70 mM HEPES-NaOH pH7.5, 3 mM MgCl2, 3 mM MnCl2, 3 μM Na-orthovanadate, 1.2 mM DTT, 50 μg/ml PEG20000, ATP (variable concentrations, corresponding to the apparent ATP-Km of the respective kinase), [γ-^33P]-ATP (approx. […] per well), protein kinase and substrate.
(§4) The reaction cocktails were incubated at 30° C. for 60 minutes. The reaction is stopped with 50 μl of 2% (v/v) H3PO4, plates were aspirated and washed two times with 200 μl 0.9% (w/v) NaCl. Incorporation of ^33Pi was determined with a microplate scintillation counter (Microbeta, Wallac).
(§5) All assays were performed with a BeckmanCoulter/SAGIAN™ Core System.
(§6) In case of single concentration assays, the potency of the test compound is expressed as % residual activity. For determination of IC50-values, serial dilutions in the final concentration range between 100 μM and 3 nM (10 concentrations) were tested. The fitting model for the IC50 determinations was “Sigmoidal response (variable slope)” with parameters “top” fixed at 100% and “bottom” at 0%. The fitting method used was a least-squares fit.

BRaf = target: T2, BRaf (Homo sapiens, UniProt P15056); assay: 33PanQinase kinase assay, selectivity against BRaf; conditions: ratio IC50 (BRaf)/IC50 (MKK4)
T2 construct: purchased ProQinase GmbH, Freiburg, Germany (assay service)
T2 sequence (P15056 whole entry): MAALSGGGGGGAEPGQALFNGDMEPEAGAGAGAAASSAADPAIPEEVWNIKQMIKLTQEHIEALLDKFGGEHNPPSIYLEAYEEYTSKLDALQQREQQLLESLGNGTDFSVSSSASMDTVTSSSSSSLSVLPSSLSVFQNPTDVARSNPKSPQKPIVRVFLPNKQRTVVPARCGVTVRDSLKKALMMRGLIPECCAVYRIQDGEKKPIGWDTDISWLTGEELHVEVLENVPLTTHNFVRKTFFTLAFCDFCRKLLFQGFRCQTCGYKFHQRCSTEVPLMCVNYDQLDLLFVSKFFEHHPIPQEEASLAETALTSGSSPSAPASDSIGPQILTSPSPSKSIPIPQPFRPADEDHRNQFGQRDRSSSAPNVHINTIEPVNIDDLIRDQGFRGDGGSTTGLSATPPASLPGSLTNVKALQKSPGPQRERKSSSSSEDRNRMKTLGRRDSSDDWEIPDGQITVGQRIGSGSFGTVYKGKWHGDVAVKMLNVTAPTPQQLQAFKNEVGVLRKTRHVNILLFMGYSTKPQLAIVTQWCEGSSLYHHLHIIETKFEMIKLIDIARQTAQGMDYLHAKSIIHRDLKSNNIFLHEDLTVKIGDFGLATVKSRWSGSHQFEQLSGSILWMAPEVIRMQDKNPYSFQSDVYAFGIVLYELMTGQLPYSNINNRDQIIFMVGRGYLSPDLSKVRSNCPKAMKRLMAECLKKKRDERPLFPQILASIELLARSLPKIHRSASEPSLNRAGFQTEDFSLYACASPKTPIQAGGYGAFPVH
Protocol: as §1, §2, §3, §4, §5, §6
(§7) Selectivity of test compounds against BRaf, JNK1 and MKK7, altogether denominated as off-targets was calculated by the ratio of IC50 (off-target)/IC50 (MKK4) and categorized as follows: […]

JNK1 = target: T3, JNK1 (Homo sapiens, UniProt P45983); assay: 33PanQinase kinase assay, selectivity against JNK1; conditions: ratio IC50 (JNK1)/IC50 (MKK4)
T3 construct: purchased ProQinase GmbH, Freiburg, Germany (assay service)
T3 sequence (P45983 whole entry): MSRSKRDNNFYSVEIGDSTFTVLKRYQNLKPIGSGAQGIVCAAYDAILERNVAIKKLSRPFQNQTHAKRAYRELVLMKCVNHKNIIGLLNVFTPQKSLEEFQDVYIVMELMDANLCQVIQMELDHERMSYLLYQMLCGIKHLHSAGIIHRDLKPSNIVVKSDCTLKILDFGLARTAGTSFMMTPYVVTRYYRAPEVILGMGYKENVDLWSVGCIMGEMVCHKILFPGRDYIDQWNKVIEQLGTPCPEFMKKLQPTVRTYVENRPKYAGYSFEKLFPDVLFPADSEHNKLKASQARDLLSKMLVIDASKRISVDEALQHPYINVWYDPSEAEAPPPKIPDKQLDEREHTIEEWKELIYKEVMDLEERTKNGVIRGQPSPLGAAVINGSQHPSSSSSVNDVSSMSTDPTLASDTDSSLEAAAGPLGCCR
Protocol: as §1, §2, §3, §4, §5, §6, §7

MKK7 = target: T4, MKK7 (Homo sapiens, UniProt O14733); assay: 33PanQinase kinase assay, selectivity against MKK7; conditions: ratio IC50 (MKK7)/IC50 (MKK4)
T4 construct: purchased ProQinase GmbH, Freiburg, Germany (assay service)
T4 sequence (O14733 1-419): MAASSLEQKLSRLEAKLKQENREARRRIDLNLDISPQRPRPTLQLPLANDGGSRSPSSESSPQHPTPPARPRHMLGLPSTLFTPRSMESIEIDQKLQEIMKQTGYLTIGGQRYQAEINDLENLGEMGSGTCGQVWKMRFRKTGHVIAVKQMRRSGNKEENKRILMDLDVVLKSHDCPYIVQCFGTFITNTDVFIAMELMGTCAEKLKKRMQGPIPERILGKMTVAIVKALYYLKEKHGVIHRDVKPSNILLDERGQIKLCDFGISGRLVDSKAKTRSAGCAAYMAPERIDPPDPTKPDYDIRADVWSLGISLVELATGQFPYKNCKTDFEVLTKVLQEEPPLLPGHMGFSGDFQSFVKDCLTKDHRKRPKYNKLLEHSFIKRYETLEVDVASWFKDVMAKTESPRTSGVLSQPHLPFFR
Protocol: as §1, §2, §3, §4, §5, §6, §7

Structure (SMILES) | IC50 (MKK4) [nM] | Selectivity BRaf, IC50(off-target)/IC50(MKK4) (BRaf) | Selectivity JNK1, IC50(off-target)/IC50(MKK4) (JNK1) | Selectivity MKK7, IC50(off-target)/IC50(MKK4) (MKK7)
CCCS(=O)(=O)Nc1c(F)ccc(C(=O)c2c[nH]c3ncc(-c4cnc(C5CC5)nc4C)cc23)c1F [Example 11] | < 100 | +++ (IC50(off-target)/IC50(MKK4) > 100) | +++ (IC50(off-target)/IC50(MKK4) > 100) | +++ (IC50(off-target)/IC50(MKK4) > 100)
CCCS(=O)(=O)Nc1c(F)ccc(C(=O)c2c[nH]c3ncc(-c4cnc(C5CCCC5)nc4)cc23)c1F [Example 6] | 1000 to 10000 | +++ (IC50(off-target)/IC50(MKK4) > 100) | ++ (100 ≥ IC50(off-target)/IC50(MKK4) > 10) | +++ (IC50(off-target)/IC50(MKK4) > 100)
CCCS(=O)(=O)Nc1c(F)ccc(C(=O)c2c[nH]c3ncc(-c4cnc(C)nc4C)cc23)c1F [Example 10] | < 100 | +++ (IC50(off-target)/IC50(MKK4) > 100) | +++ (IC50(off-target)/IC50(MKK4) > 100) | +++ (IC50(off-target)/IC50(MKK4) > 100)
CCCS(=O)(=O)Nc1c(F)ccc(C(=O)c2c[nH]c3ncc(-c4cnc(OCC(C)(C)C)nc4)cc23)c1F [Example 13] | > 10000 | + (10 ≥ IC50(off-target)/IC50(MKK4) > 3) | + (10 ≥ IC50(off-target)/IC50(MKK4) > 3) | + (10 ≥ IC50(off-target)/IC50(MKK4) > 3)
CCCS(=O)(=O)Nc1c(F)ccc(C(=O)c2c[nH]c3ncc(-c4cnc(C5CCC5)nc4)cc23)c1F [Example 5] | 100 to 1000 | +++ (IC50(off-target)/IC50(MKK4) > 100) | +++ (IC50(off-target)/IC50(MKK4) > 100) | +++ (IC50(off-target)/IC50(MKK4) > 100)
CCCS(=O)(=O)Nc1c(F)cc(F)c(C(=O)c2c[nH]c3ncc(-c4cnc(C5CC5)nc4)cc23)c1F [Example 7] | < 100 | +++ (IC50(off-target)/IC50(MKK4) > 100) | +++ (IC50(off-target)/IC50(MKK4) > 100) | +++ (IC50(off-target)/IC50(MKK4) > 100)
CCCS(=O)(=O)Nc1c(F)ccc(C(=O)c2c[nH]c3ncc(-c4ccc(P(C)(C)=O)cc4)cc23)c1F [Example 4] | < 100 | ++ (100 ≥ IC50(off-target)/IC50(MKK4) > 10) | ++ (100 ≥ IC50(off-target)/IC50(MKK4) > 10) | +++ (IC50(off-target)/IC50(MKK4) > 100)
O=C(c1c(F)cc(F)c(NS(=O)(=O)Cc2ccccc2)c1F)c1c[nH]c2ncc(-c3cnc(C4CC4)nc3)cc12 [Example 14] | < 100 | ++ (100 ≥ IC50(off-target)/IC50(MKK4) > 10) | ++ (100 ≥ IC50(off-target)/IC50(MKK4) > 10) | +++ (IC50(off-target)/IC50(MKK4) > 100)
CCCS(=O)(=O)Nc1c(F)ccc(C(=O)c2c[nH]c3ncc(-c4cnc(OC)nc4C)cc23)c1F [Example 8] | < 100 | ++ (100 ≥ IC50(off-target)/IC50(MKK4) > 10) | + (10 ≥ IC50(off-target)/IC50(MKK4) > 3) | +++ (IC50(off-target)/IC50(MKK4) > 100)
CCCS(=O)(=O)Nc1c(F)ccc(C(=O)c2c[nH]c3ncc(-c4ccc(C(=O)NOCCO)cc4)cc23)c1F [Example 3, 4-(3-(2,4-difluoro-3-(propylsulfonamido)benzoyl)-1H-pyrrolo[2,3-b]pyridin-5-yl)-N-(2-hydroxyethoxy)benzamide] | < 100 | ++ (100 ≥ IC50(off-target)/IC50(MKK4) > 10) | ++ (100 ≥ IC50(off-target)/IC50(MKK4) > 10) | +++ (IC50(off-target)/IC50(MKK4) > 100)
CCCS(=O)(=O)Nc1c(F)ccc(C(=O)c2c[nH]c3ncc(-c4cncnc4C)cc23)c1F [Example 9] | < 100 | +++ (IC50(off-target)/IC50(MKK4) > 100) | ++ (100 ≥ IC50(off-target)/IC50(MKK4) > 10) | +++ (IC50(off-target)/IC50(MKK4) > 100)
CCCS(=O)(=O)Nc1c(F)ccc(C(=O)c2c[nH]c3ncc(-c4cnc(C5CC5)nc4SC)cc23)c1F [Example 12] | 100 to 1000 | ++ (100 ≥ IC50(off-target)/IC50(MKK4) > 10) | ++ (100 ≥ IC50(off-target)/IC50(MKK4) > 10) | +++ (IC50(off-target)/IC50(MKK4) > 100)
